Publication PMC10144058, “New Hybrid Scaffolds Based on 5-FU/Curcumin: Synthesis, Cytotoxic, Antiproliferative and Pro-Apoptotic Effect” (Pharmaceutics, 2023)
Where two headings read alike, the source gives them in different places.

Legend:
[1] = system: SW480 cells; experiment: Cell cycle analysis (PI, flow cytometry); type: cell-based, human; details: SW480, treated with IC50 value, 48 h
Method: (§1) The method used for the recognition of cell cycle phases (G0/G1, S, G2/M) was based on staining with a fluorescent dye (propidium iodide—PI), as a direct relationship between fluorescence intensity and DNA content can be established. For this method, 250,000 cells/well were initially seeded in 6-well culture plates with an adherence period of 24 h at 37 °C in a 5% CO2 atmosphere. […] After treatment, cells were obtained by mechanical disaggregation, and the cell pellet was centrifuged and washed with a versene buffer. The cell pellet was fixed with 1.8 mL of cold 70% ethanol and kept at 4 °C overnight. Subsequently, two washes with a versene buffer were performed, and the pellet was resuspended in 300 µL of PBS containing 0.25 mg/mL of RNAsa and 0.1 mg/mL of PI. After a 30 min period of dark incubation, the fluorescence of 10,000 cells was analyzed using a FACS Canto II flow cytometer. The PI signal was analyzed with excitation at 488 nm using a sapphire laser, and fluorescence was detected at 610 nm. The data analysis was performed with FlowJo 10.8.1 software.

[2] = system: SW620 cells; experiment: Cell cycle analysis (PI, flow cytometry); type: cell-based, human; details: SW620, treated with IC50 value, 48 h
Method: as §1

[3] = system: SW480 cells; experiment: Cell viability, sulforhodamine B (SRB) assay; type: cell-based; details: Homo sapiens
[4] = system: caspase 3, caspase 7, caspase 8 and p53 in SW620 cells; experiment: Apoptotic biomarkers (ELISA); type: cell-based, human; details: SW620, treated with IC50, 48 h, vs control
Method: (§2) To provide an approach to the possible molecular mechanisms through which the hybrid compounds induce an effect on the cell lines, different proteins related to the process of death by apoptosis were determined. For this method, 1,000,000 cells were initially seeded per Petri dish, with an adherence period of 24 h at 37 °C in a 5% CO2 atmosphere. […] Later, the consumed medium was discarded, and after the addition of the versene buffer, the cells were obtained by mechanical disaggregation. The cells were then lysed with a cell lysis buffer and centrifuged to obtain the supernatant, which was used to determine the biomarkers of interest by enzyme-linked immunosorbent assays. These ELISA kits were provided by Elabscience Biotechnology Co., Houston, TX, USA [26].

[5] = system: caspase 3, caspase 7, caspase 8 and p53 in SW480 cells; experiment: Apoptotic biomarkers (ELISA); type: cell-based, human; details: SW480, treated with IC50, 48 h, vs control
Method: as §2

[6] = system: SW620 cells; experiment: Antiproliferative activity (SRB, 0-8 days); type: cell-based, human; details: for viability at 1.25 µM / viability at 20 µM: Homo sapiens, read-out: Cell Viability (%) ± SE; for viability at 1.25 µM: SW620, 1.25 µM; for viability at 20 µM: SW620, 20 µM
Method: (§3) For this experiment, the same colorimetric method (SRB) from the evaluation of cell viability was used, although with some modifications. Initially, 2500 cells per well were seeded in 96-well culture plates, and a 24 h adherence period was performed at 37 °C in a 5% CO2 atmosphere. […] For this assay, incubation periods of 0, 2, 4, 6, and 8 days were used, and the fixation, staining, and reading conditions were the same as those previously described for the cytotoxicity assay.

[7] = system: SW620 cells; experiment: Cell viability, sulforhodamine B (SRB) assay; type: cell-based, human; details: Homo sapiens
[8] = system: HaCaT cells; experiment: Cell viability, sulforhodamine B (SRB) assay, non-malignant cells; type: cell-based; details: Homo sapiens
[9] = system: SW480 cells; experiment: Cell death induction (Annexin-V/PI, flow cytometry); type: cell-based, human; details: SW480, treated with IC50, 48 h
Method: For this method, 250,000 cells/well were initially seeded in 6-well culture plates during a 24 h adherence period at 37 °C in a 5% CO2 atmosphere. […] After treatment, cells were obtained by mechanical disaggregation, resuspended in a solution with Annexin-V-FLUOS and PI, and incubated for 20 min in the dark before flow cytometry analysis.

[10] = system: SW480 cells; experiment: Antiproliferative activity (SRB, 0-8 days); type: cell-based; details: Homo sapiens, read-out: Cell Viability (%) ± SE; for viability at 0.625 µM: SW480, 0.625 µM; for viability at 10 µM: SW480, 10 µM
Method: as §3

[11] = system: CHO-K1 cells; experiment: Cell viability, sulforhodamine B (SRB) assay, non-malignant cells; type: cell-based, Chinese Hamster; details: Cricetulus griseus
[12] = SW-620, 48 h, 2 days after plating
[13] = SW-620, 96 h, 4 days after plating
[14] = SW-620, 144 h, 6 days after plating
[15] = SW-620, 192 h, 8 days after plating

COc1cc(/C=C/C(=O)c2ccc(OCCCCCn3cc(Cn4cc(F)c(=O)[nH]c4=O)nn3)cc2)ccc1O [Compound 6d, (E)-5-fluoro-1-((1-(5-(4-(3-(4-hydroxy-3-methoxyphenyl)acryloyl)phenoxy)pentyl)-1H-1,2,3-triazol-4-yl)methyl)pyrimidine-2,4(1H,3H)-dione]
Cell cycle distribution, G0/G1 [1]: 42.9% | Cell cycle distribution, G2/M [1]: 10.1% | Cell cycle distribution, S Phase [1]: 20.0% | Cell cycle distribution, Sub G0/G1 [1]: 24.1% | Cell cycle distribution, G0/G1 [2]: 4.4% | Cell cycle distribution, G2/M [2]: 11.0% | Cell cycle distribution, S Phase [2]: 24.7% | IC50 ([3]; SW480, 24 h): 15.7 ± 1.91 µM | IC50 ([3]; SW480, 48 h): 2.43 ± 0.33 µM | levels of biomarkers (caspase 3, caspase 7, caspase 8, p53) [4]: no significant differences | levels of biomarkers (caspase 3, caspase 7, caspase 8, p53) [5]: no significant differences | viability at 1.25 µM [6, 12]: 91 ± 2.85% | viability at 20 µM [6, 12]: 42.5 ± 4.57% | viability at 1.25 µM [6, 13]: 85.2 ± 3.23% | viability at 20 µM [6, 13]: 7.1 ± 0.95% | viability at 1.25 µM [6, 14]: 67.3 ± 2.32% | viability at 20 µM [6, 14]: 0% | viability at 1.25 µM [6, 15]: 54.4 ± 2.76% | viability at 20 µM [6, 15]: 0% | inhibition percentages (decrease in cell viability) ([6]; SW620, from 5 µM, day 2): higher than 30% | IC50 ([7]; SW-620, 24 h, 24 h): 37.1 ± 3.05 µM | IC50 ([7]; SW-620, 48 h, 48 h): 7.51 ± 1.47 µM | IC50 ([8]; 24 h): 42.6 ± 6.93 µM | IC50 ([8]; 48 h): 20.3 ± 2.66 µM | Annexin V/PI quadrant Q3 (early apoptotic cells) [9]: 50.2% | viability at 0.625 µM ([10]; 48 h, 2 days after plating): 90.1 ± 1.45% | viability at 10 µM ([10]; 48 h, 2 days after plating): 7.35 ± 1.45% | viability at 0.625 µM ([10]; 96 h, 4 days after plating): 55.5 ± 2.21% | viability at 10 µM ([10]; 96 h, 4 days after plating): 0.75 ± 0.2% | viability at 0.625 µM ([10]; 144 h, 6 days after plating): 46.36 ± 0.18% | viability at 10 µM ([10]; 144 h, 6 days after plating): 0.68 ± 0.14% | viability at 0.625 µM ([10]; 192 h, 8 days after plating): 32.3 ± 0.77% | viability at 10 µM ([10]; 192 h, 8 days after plating): 0% | IC50 ([11]; CHO-K1, 24 h): 12.4 ± 1.34 µM | IC50 ([11]; CHO-K1, 48 h): 28.1 ± 1.95 µM
